ChEMBL document CHEMBL2375296, “BCR-ABL tyrosine kinase inhibitor pharmacophore model derived from a series of phenylaminopyrimidine-based (PAP) derivatives” (Bioorg Med Chem Lett, 2013)

Target: Bcr/Abl fusion protein (Homo sapiens, UniProt P00519)
Assay: Inhibition of BCR-ABL kinase (unknown origin)
Assay type: protein assay

Bcr/Abl fusion protein, sequence (P00519 whole entry, the tested form may be a part): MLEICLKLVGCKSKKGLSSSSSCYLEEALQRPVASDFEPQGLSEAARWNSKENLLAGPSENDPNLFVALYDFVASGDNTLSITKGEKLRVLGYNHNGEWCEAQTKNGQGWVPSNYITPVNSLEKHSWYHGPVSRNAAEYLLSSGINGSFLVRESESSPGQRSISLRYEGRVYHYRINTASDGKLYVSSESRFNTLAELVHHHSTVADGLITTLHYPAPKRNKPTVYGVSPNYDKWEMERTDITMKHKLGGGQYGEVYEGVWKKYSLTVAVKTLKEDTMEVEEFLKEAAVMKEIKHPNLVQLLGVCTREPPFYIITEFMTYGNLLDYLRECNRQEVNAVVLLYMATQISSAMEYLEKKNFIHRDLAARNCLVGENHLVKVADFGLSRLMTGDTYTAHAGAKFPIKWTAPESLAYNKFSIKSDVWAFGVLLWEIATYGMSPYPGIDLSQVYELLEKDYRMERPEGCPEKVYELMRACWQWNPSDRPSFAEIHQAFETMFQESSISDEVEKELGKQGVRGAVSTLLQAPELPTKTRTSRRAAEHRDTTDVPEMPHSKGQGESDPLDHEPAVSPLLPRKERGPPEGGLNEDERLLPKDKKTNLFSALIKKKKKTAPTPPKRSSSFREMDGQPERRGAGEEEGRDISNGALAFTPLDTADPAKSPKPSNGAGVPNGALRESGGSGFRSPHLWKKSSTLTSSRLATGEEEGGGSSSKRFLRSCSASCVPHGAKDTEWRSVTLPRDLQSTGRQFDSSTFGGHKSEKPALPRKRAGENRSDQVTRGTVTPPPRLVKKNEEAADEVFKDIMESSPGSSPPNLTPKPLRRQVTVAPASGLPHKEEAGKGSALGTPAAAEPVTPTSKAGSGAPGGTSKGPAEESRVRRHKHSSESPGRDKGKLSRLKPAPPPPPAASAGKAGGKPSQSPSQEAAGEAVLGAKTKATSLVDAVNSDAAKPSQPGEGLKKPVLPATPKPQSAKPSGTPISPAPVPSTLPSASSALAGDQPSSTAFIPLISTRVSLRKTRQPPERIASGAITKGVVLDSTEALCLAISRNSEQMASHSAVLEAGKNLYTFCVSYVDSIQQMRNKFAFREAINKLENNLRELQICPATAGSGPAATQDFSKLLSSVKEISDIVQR
Bcr/Abl fusion protein, sequence (P11274 whole entry, further chain, the tested form may be a part): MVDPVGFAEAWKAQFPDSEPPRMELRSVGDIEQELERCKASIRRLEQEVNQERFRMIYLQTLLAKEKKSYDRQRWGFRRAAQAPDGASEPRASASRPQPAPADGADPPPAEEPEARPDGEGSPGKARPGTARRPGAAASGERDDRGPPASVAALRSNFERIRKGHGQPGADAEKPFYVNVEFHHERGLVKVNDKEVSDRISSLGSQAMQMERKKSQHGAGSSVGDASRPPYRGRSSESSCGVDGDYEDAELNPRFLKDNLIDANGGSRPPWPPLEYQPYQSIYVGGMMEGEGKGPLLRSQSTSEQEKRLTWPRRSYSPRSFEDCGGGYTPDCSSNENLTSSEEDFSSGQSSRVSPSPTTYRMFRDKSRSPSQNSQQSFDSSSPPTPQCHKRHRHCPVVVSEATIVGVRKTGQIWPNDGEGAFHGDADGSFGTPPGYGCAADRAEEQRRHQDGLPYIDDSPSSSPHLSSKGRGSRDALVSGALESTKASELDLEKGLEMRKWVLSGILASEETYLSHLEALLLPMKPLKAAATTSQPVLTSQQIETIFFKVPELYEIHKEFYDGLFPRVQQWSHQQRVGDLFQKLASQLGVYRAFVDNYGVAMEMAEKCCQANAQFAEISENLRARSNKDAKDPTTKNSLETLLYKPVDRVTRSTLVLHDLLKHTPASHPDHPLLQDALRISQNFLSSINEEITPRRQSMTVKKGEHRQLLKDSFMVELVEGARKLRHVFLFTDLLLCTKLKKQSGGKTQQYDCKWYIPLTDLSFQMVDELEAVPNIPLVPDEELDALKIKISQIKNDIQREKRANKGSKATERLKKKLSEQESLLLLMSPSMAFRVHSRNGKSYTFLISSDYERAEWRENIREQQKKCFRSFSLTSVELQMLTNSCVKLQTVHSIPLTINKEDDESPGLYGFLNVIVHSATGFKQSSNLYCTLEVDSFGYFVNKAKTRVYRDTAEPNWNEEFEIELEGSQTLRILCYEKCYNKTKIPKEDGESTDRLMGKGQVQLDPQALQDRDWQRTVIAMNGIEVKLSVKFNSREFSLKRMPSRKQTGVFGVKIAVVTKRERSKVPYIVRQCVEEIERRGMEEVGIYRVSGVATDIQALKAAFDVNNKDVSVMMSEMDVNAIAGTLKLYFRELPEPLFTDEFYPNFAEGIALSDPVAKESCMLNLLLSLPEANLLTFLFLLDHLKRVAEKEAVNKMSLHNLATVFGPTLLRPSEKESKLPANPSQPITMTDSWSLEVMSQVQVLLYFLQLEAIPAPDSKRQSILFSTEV

| IC50 [nM] | SMILES |
| --- | --- |
| 2190 | Cc1ccc(NC(=O)c2ccc(/N=N/N(C)C)cc2)cc1Nc1nccc(-c2cccnc2)n1 |
| 9770 | Nc1ccc(C(=O)Nc2cccc(Nc3nccc(-c4cccnc4)n3)c2)cc1 |
| 3.98 | Cc1ccc(NC(=O)c2ccc(CN3CCC(N(C)C)C3)c(C(F)(F)F)c2)cc1Nc1nccc(-c2cncnc2)n1 (stereo not drawn) |
| 10000 | Cc1ccc(NC(=O)Nc2ccc(N(C)C)cc2)cc1Nc1nccc(-c2cccnc2)n1 |
| 5010 | Cc1ccc(NC(=O)N2CCN(C)CC2)cc1Nc1nccc(-c2cccnc2)n1 |
| 10000 | CCN(CC)c1ccc(NC(=O)Nc2ccc(C)c(Nc3nccc(-c4cccnc4)n3)c2)cc1 |
| 10 | Cc1ccc(NC(=O)c2ccc(CN3CCN(C)CC3)c(I)c2)cc1Nc1nccc(-c2cccnc2)n1 |
| 17 | Cc1ccc(NC(=O)c2ccc(CN3CC(N(C)C)C3)c(C(F)(F)F)c2)cc1Nc1nccc(-c2cncnc2)n1 |
| 398 | Cc1ccc(NC(=O)c2ccccc2)cc1Nc1nccc(-c2cccnc2)n1 |
| 794 | Cc1ccc(NC(=O)c2ccc(Cl)cc2)cc1Nc1nccc(-c2cccnc2)n1 |
| 11 | Cc1ccc(NC(=O)c2ccc(CN3CCC(CN(C)C)C3)c(C(F)(F)F)c2)cc1Nc1nccc(-c2cncnc2)n1 (stereo not drawn) |
| 20.9 | CC(C)(NC(=O)c1cc2c(NC(=O)c3ccc(CN4CCCCC4)cc3)n[nH]c2s1)c1ccccc1 |
| 4.07 | CN1CCN(c2ccc(C(=O)Nc3n[nH]c4sc(C(=O)NC(C)(C)c5ccccc5)cc34)cc2)CC1 |
| 1000 | Cc1ccc(NC(=O)NCc2cccc(Cl)c2)cc1Nc1nccc(-c2cccnc2)n1 |
| 50100 | Cc1ccc(-c2ccnc(Nc3cccc(OC(F)(F)C(F)F)c3)n2)cc1 |
| 5370 | COCCN/N=N/c1cccc(Nc2cc(-c3cccnc3)ncn2)c1 |
| 10000 | c1cc(CCN2CCOCC2)cc(Nc2nccc(-c3cccnc3)n2)c1 |
| 33200 | COCCN(C)/N=N/c1ccc(C(=O)Nc2cccc(Nc3nccc(-c4cccnc4)n3)c2)cc1 |
| 398 | NCCCCNC(=O)c1cccc(Nc2nccc(-c3cccnc3)n2)c1 |
| 302 | O=C(Nc1cccc(Nc2nccc(-c3cccnc3)n2)c1)C1=CC=CCC1=S |
| 200 | CCCCCCC(=O)Nc1cccc(Nc2nccc(-c3cccnc3)n2)c1 |
| 398 | O=C(Nc1cccc(Nc2nccc(-c3cccnc3)n2)c1)c1ccccc1 |
| 1510 | Cc1ccc(N)cc1Nc1nccc(-c2cccnc2)n1 |
| 3310 | c1cncc(-c2ccnc(Nc3cccc(-n4ccnc4)c3)n2)c1 |
| 3800 | O=C(Nc1cccc(Nc2nccc(-c3cccnc3)n2)c1)c1ccccn1 |
| 347 | NCCCn1ccc2c(-c3ccnc(Nc4cccc(OC(F)(F)C(F)F)c4)n3)cccc21 |
| 1910 | COc1ccccc1C(=O)Nc1cccc(Nc2nccc(-c3cccnc3)n2)c1 |

| IC50 [nM] | SMILES |
| --- | --- |
| 1510 | Clc1cccc(Nc2nccc(-c3cccnc3)n2)c1 |
| 67600 | Cc1ccc(NC(=O)c2ccc(N)cc2)cc1Nc1nccc(-c2cccnc2)n1 |
| 1820 | Cc1cccc(Nc2nccc(-c3cccnc3)n2)c1 |
| 8910 | Cc1ccc(NC(=O)NCCN2CCCC2)cc1Nc1nccc(-c2cccnc2)n1 |
| 1000 | CCN(CC)c1cccc(NC(=O)Nc2ccc(C)c(Nc3nccc(-c4cccnc4)n3)c2)c1 |
| 10 | Cc1ccc(NC(=O)c2ccc(CN3CCN(C)CC3)c(Cl)c2)cc1Nc1nccc(-c2cccnc2)n1 |
| 794 | COc1ccccc1C(=O)Nc1ccc(C)c(Nc2nccc(-c3cccnc3)n2)c1 |
| 200 | O=C(Nc1cccc(Nc2nccc(-c3cccnc3)n2)c1)c1ccc(F)cc1 |
| 5750 | CC(=O)Nc1ccc(C)c(Nc2nccc(-c3cccnc3)n2)c1 |
| 575 | Cc1ccc(NC(=O)Nc2cccc(N(C)C)c2)cc1Nc1nccc(-c2cccnc2)n1 |
| 603 | CCC(=O)Nc1ccc(Sc2nc(Nc3cc(C)[nH]n3)cc(N3CCN(C)CC3)n2)cc1 |
| 64.6 | CN1CCN(c2ccc(C(=O)Nc3[nH]nc4c3CN(C(=O)Cc3cccs3)C4)cc2)CC1 |
| 501 | O=C(Nc1cccc(Nc2nccc(-c3cccnc3)n2)c1)c1ccncc1 |
| 100000 | FC(F)C(F)(F)Oc1cccc(Nc2nccc(-c3ccncc3)n2)c1 |
| 61700 | O=[N+]([O-])c1cccc(Nc2nccc(-c3ccncc3)n2)c1 |
| 2000 | O=C(O)c1ccccc1C(=O)Nc1cccc(Nc2nccc(-c3cccnc3)n2)c1 |
| 33900 | O=[N+]([O-])c1cccc(Nc2nccc(-c3cccnc3)n2)c1 |
| 5130 | COC(=O)c1cccc(Nc2nccc(-c3cccnc3)n2)c1 |
| 100 | CN1CCN(Cc2ccc(C(=O)Nc3cccc(Nc4nccc(-c5cccnc5)n4)c3)cc2)CC1 |
| 603 | Nc1cccc(Nc2nccc(-c3ccncc3)n2)c1 |
| 708 | Nc1cccc(Nc2nccc(-c3cccnc3)n2)c1 |
| 7940 | O=C(O)c1cccc(Nc2nccc(-c3cccnc3)n2)c1 |
| 1000 | c1cc(Nc2nccc(-c3cccnc3)n2)cc(OCCn2ccnc2)c1 |
| 1290 | N#Cc1ccc(C(=O)Nc2cccc(Nc3nccc(-c4cccnc4)n3)c2)cc1 |
| 1000 | Cc1ccc(C(=O)Nc2cccc(Nc3nccc(-c4cccnc4)n3)c2)cc1 |
| 1200 | O=[N+]([O-])c1cccc(Nc2nccc(-c3ccccn3)n2)c1 |

| SMILES | IC50 [nM] |
| --- | --- |
| Cc1ccc(NC(=O)c2ccc(/N=N/N(C)CCCl)cc2)cc1Nc1nccc(-c2cccnc2)n1 | 17400 |
| Cc1ccc(NC(=O)c2ccc3ccccc3c2)cc1Nc1nccc(-c2cccnc2)n1 | 200 |
| O=C(Nc1cccc(Nc2nccc(-c3cccnc3)n2)c1)c1cccnc1 | 151 |
| FC(F)C(F)(F)Oc1cccc(Nc2nccc(-c3c[nH]c4ccccc34)n2)c1 | 372 |
| O=C(Nc1cccc(Nc2nccc(-c3cccnc3)n2)c1)C1CCCCC1 | 447 |
